Here are results for 21 molecules from ChEMBL document CHEMBL4130390, “Crystal structure of Porphyromonas gingivalis dipeptidyl peptidase 4 and structure-activity relationships based on inhibitor profiling” (Eur J Med Chem, 2017).

As usually defined, the inhibition is the change of the read-out against control, counted positive when it falls. One may read the IC50 as the concentration that inhibits the measured activity by half. As usually defined, the Ki is a measure of affinity in units of concentration, obtained from inhibition or displacement. Read a high Ki as weaker binding.

Active and inactive are the calls of the source. The rule behind the calls is not given here.

For experiment [1], the target named is Dipeptidyl peptidase IV (Porphyromonas gingivalis) (UniProt O31048). The experiment is described as follows: Inhibition of Porphyromonas gingivalis N-terminal His-tagged DPP4 expressed in Escherichia coli at 10 uM using Gly-Pro-p-nitroanilide as substrate relative to control.
Experiment [2] has the same target. Nature of the experiment: Inhibition of Porphyromonas gingivalis N-terminal His-tagged DPP4 expressed in Escherichia coli at 100 uM using Gly-Pro-p-nitroanilide as substrate relative to control.
Experiment [3] deals with T1, Dipeptidyl peptidase IV (Porphyromonas gingivalis, UniProt O31048). Nature of the experiment: Inhibition of Porphyromonas gingivalis N-terminal His-tagged DPP4 expressed in Escherichia coli using Gly-Pro-p-nitroanilide as substrate.
A short description of experiment [4]: Selectivity index, ratio of IC50 for human DPP4 to IC50 for Porphyromonas gingivalis N-terminal His-tagged DPP4 expressed in Escherichia coli.
Experiment [5] concerns the target Dipeptidyl peptidase IV (Porphyromonas gingivalis) (UniProt O31048). Nature of the experiment: Inhibition of Porphyromonas gingivalis N-terminal His-tagged DPP4 expressed in Escherichia coli using Gly-Pro-p-nitroanilide as substrate after 1 hr.
For experiment [6], the target named is T1, Dipeptidyl peptidase IV. Nature of the experiment: Inhibition of Porphyromonas gingivalis N-terminal His-tagged DPP4 expressed in Escherichia coli using Gly-Pro-p-nitroanilide as substrate preincubated for 15 mins.
Another experiment addresses Dipeptidyl peptidase 9 (Bos taurus, UniProt E1BI31). The experiment is described as follows: Inhibition of bovine DPP9.

T1 sequence (O31048 20-723 limits assumed): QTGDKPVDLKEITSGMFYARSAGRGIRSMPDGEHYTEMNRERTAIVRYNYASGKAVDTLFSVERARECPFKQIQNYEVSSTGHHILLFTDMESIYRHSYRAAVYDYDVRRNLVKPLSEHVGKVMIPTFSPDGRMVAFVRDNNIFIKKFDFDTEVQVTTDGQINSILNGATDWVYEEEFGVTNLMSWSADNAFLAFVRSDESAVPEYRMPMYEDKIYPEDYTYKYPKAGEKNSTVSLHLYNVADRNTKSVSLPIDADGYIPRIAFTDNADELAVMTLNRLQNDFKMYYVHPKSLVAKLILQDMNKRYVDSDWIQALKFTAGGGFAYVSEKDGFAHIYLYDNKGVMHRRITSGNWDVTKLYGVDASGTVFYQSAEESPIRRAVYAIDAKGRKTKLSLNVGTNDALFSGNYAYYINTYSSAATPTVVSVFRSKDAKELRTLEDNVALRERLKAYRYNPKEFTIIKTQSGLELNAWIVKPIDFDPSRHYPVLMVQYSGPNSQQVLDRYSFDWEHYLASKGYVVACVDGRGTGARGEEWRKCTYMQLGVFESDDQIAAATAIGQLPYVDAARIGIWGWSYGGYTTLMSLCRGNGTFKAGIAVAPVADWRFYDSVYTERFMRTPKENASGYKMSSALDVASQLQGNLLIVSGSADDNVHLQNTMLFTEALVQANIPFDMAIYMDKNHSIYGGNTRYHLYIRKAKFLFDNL
Sequence of Dipeptidyl peptidase IV (Porphyromonas gingivalis) (O31048 20-723 limits assumed): as above
Sequence of Dipeptidyl peptidase 9 (E1BI31 whole entry): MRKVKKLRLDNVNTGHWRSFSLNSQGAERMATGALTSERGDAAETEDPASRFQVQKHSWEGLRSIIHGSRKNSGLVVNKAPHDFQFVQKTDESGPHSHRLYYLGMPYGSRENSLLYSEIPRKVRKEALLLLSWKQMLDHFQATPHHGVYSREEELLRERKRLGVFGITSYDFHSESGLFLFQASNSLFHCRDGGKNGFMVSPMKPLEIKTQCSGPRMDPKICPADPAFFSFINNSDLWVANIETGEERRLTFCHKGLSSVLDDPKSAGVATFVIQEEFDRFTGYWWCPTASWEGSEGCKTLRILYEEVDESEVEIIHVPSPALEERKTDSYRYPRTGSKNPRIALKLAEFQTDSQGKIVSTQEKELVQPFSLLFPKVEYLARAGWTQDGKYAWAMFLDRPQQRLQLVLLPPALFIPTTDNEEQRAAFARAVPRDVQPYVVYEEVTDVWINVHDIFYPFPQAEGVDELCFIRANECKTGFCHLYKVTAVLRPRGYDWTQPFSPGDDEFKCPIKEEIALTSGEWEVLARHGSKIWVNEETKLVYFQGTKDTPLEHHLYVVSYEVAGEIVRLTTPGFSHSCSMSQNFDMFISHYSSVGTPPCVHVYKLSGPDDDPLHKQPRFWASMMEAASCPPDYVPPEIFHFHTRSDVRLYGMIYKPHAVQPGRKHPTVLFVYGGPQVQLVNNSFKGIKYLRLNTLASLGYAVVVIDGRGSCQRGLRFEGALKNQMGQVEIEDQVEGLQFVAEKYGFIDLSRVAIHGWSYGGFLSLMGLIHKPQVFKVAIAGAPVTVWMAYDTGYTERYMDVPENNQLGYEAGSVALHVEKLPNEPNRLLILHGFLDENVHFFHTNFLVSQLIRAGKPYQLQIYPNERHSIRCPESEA

With `NCCCCC(N)C(=O)N1CCSC1` (stereo unspecified), the inhibition in experiment [1] was greater than 50%; in experiment [2], less than 50%. Moreover, the 50% inhibitory concentration (IC50) at Dipeptidyl peptidase IV [3] (read-out: IC50) was 19 µM. In addition, in experiment [4], the Ratio IC50 was determined as 0.09.
On to `N#C[C@@H]1CCCN1C(=O)CNC12CC3CC(CC(O)(C3)C1)C2` [VILDAGLIPTIN], for which the inhibition in experiment [1] was greater than 50%. The IC50 on Dipeptidyl peptidase IV [3] (read-out: IC50) came to 1.3 µM. Further, in experiment [5], the inhibition result is “Active”. For the same molecule, affinity at Dipeptidyl peptidase IV [6] was put at a Ki of 0.017 µM.
As to `NC(CC(=O)N1CCN(C(c2ccccc2)c2ccc(Cl)cc2)CC1)C(=O)N1Cc2ccc(F)cc2C1` (stereo unspecified), the inhibition was greater than 50% in experiment [1] and less than 50% in experiment [2]. Besides, the IC50 at Dipeptidyl peptidase IV [3] (read-out: IC50) is 17 µM. Also, the Ratio IC50 in experiment [4] is greater than 5.9.
Taken in the same sequence, the figures for `NC(CC(=O)N1CCN(C(c2ccc(F)cc2)c2ccc(F)cc2)CC1)C(=O)N1Cc2ccc(F)cc2C1` (stereo unspecified) were greater than 50%, less than 50%, 22 µM and 2.7.
With `N#C[C@@H]1C[C@H](N=[N+]=[N-])CN1C(=O)[C@@H](N)CCCCNC(=O)OCc1ccccc1`, the results for the inhibition in experiment [1] and in experiment [2] were greater than 50% and less than 50%, respectively. The IC50 on Dipeptidyl peptidase IV [3] (read-out: IC50) was found to be 0.3 µM. Also, the Ratio IC50 in experiment [4] lay within 1.76 to 1.8. For the same molecule, in experiment [5], the inhibition result is “Active”.
For `N#C[C@@H]1C[C@H](N=[N+]=[N-])CN1C(=O)[C@@H](N)CCC(=O)NCCN`, the inhibition is greater than 50% in experiment [1] and less than 50% in experiment [2]. In addition, the IC50 at Dipeptidyl peptidase IV [3] (read-out: IC50) was 0.8 µM. Besides, in experiment [4], the Ratio IC50 came out at 0.5.
For `CNCCCCC(N)C(=O)N1CCCC1` (stereo unspecified), the inhibition in experiment [1] is greater than 50%; in experiment [2], less than 50%. For the same molecule, on Dipeptidyl peptidase IV [3] (read-out: IC50), the IC50 turned out to be 9.4 µM. Moreover, the Ratio IC50 in experiment [4] is 0.52.
Take `N#C[C@@H]1C[C@H](N=[N+]=[N-])CN1C(=O)[C@@H](N)CCCCN`: the results for the inhibition in experiment [1] and in experiment [2] were greater than 50% and less than 50%, respectively. Moreover, the IC50 on Dipeptidyl peptidase IV [3] (read-out: IC50) worked out at 0.33 µM. Further, the Ratio IC50 in experiment [4] was in the range of 6.58 to 6.7.
Taken in the same sequence, the figures for `NC(CCCCNCc1ccccc1)C(=O)N1Cc2ccccc2C1` (stereo unspecified) were greater than 50%, less than 50%, 11 µM and greater than 4.5.
Taken in the same sequence, the figures for `N#C[C@@H]1CCCN1C(=O)[C@@H](N)CCCCNC(=O)OCc1ccccc1` were greater than 50%, less than 50%, 1.5 µM and 0.02.
Taken in the same sequence, the figures for `NC(CCCCN(Cc1ccccc1)Cc1ccccc1)C(=O)N1CCCC1` (stereo unspecified) were greater than 50%, less than 50%, 3.4 µM and 0.88.
Turning to `CC#CCn1c(N2CCC[C@@H](N)C2)nc2c1c(=O)n(Cc1nc(C)c3ccccc3n1)c(=O)n2C` [LINAGLIPTIN], the inhibition in experiment [1] was greater than 50%; in experiment [2], less than 50%. The IC50 entry against Dipeptidyl peptidase IV [3] was “IC50 10-100 uM”; against Dipeptidyl peptidase 9, greater than 100 µM.
With `N#C[C@@H]1C[C@H](N=[N+]=[N-])CN1C(=O)[C@@H](N)CCCCNCc1ccc2ccccc2c1`, the inhibition is greater than 50% in experiment [1] and less than 50% in experiment [2]. Also, the IC50 at Dipeptidyl peptidase IV [3] (read-out: IC50) was found to be 0.079 µM. Further, the Ratio IC50 in experiment [4] was 7.04 to 7.1. In addition, in experiment [5], the inhibition result was “Active”.
In the case of `N[C@@H](CCNCc1ccc(Cl)cc1)C(=O)N1CCCCC1`, the inhibition in experiment [1] is greater than 50%. In addition, the IC50 at Dipeptidyl peptidase IV [3] (read-out: IC50) was greater than 100 µM; at Dipeptidyl peptidase 9 it was 76.6 µM.
Regarding `NC(CCCCNC(=O)OCc1ccccc1)C(=O)N1CCSC1` (stereo unspecified), the inhibition in experiment [1] is greater than 50%; in experiment [2] it was less than 50%. The IC50 on Dipeptidyl peptidase IV [3] (read-out: IC50) came out at 22 µM. The Ratio IC50 in experiment [4] came to 0.17.
Turning to `N[C@@H](CCCCNC(=O)OCc1ccccc1)C(=O)N1CCCC1`, the inhibition in experiment [1] was greater than 50%; in experiment [2], less than 50%. Also, the IC50 at Dipeptidyl peptidase IV [3] (read-out: IC50) came out at 22 µM. Besides, the Ratio IC50 in experiment [4] was 0.7 to 0.71.
For `NC(CCCCNCc1ccccc1)C(=O)N1CCCC1` (stereo unspecified), in that order: greater than 50%, less than 50%, 3.1 µM and 1.2.
For `N#C[C@@H]1CCCN1C(=O)[C@@H](N)CCCCN`, the inhibition in experiment [1] was greater than 50%; in experiment [2] it was less than 50%. Also, the IC50 on Dipeptidyl peptidase IV [3] (read-out: IC50) came to 1.6 µM. Further, the Ratio IC50 in experiment [4] is 0.16 to 0.2.
`CC[C@@H](C)[C@H](N)C(=O)N1C[C@@H](N=[N+]=[N-])C[C@H]1C#N`: the inhibition was greater than 50% in experiment [1] and less than 50% in experiment [2]. The IC50 at Dipeptidyl peptidase IV [3] (read-out: IC50) worked out at 0.23 µM. Moreover, the Ratio IC50 in experiment [4] was 1.26 to 1.3. Further, the inhibition entry in experiment [5] was “Active”.
For `CC1CC(N=[N+]=[N-])CN1C(=O)C(N)CCC(=O)N1CCN(C(c2ccc(F)cc2)c2ccc(F)cc2)CC1` (stereo unspecified), the inhibition in experiment [1] was greater than 50%; in experiment [2] it was less than 50%. Further, at Dipeptidyl peptidase IV [3] (read-out: IC50), the IC50 is 8 µM. Further, the Ratio IC50 in experiment [4] is 0.25.
For `N#C[C@@H]1C[C@H](N=[N+]=[N-])CN1C(=O)[C@@H](N)CCC(=O)N1CCNCC1`, in that order: greater than 50%, less than 50%, 0.48 µM and 1.2.
